Laboratory results published in patent US20250052754A1, “COMPOSITIONS AND METHODS FOR DIAGNOSIS, TREATMENT OF AND PREVENTION OF KIDNEY DISEASE” (XORTX THERAPEUTICS, INC., priority 2021, published 2025).
Values after ≈ are worked out from the molar mass of the structure shown.

Columns and labels:
[1] = test system: rat model of polycystic kidney disease (PCK); assay: uricase inhibition by oxonic acid in rat model of polycystic kidney disease (FIG. 6A); assay type: in vivo
Description: (§1) FIG. 6: provides data showing that uricase inhibition by oxonic acid (OXO) and commensurate increased uric acid is associated with increased total kidney to body weight ratio (2K/BWT) in a rat model of polycystic kidney disease (PCK) and in a mouse model of polycystic kidney disease (Pkd1RC/RC). Rodent models of polycystic kidney disease were treated with a uricase enzyme inhibitor—oxonic acid (OXO)—to decrease the metabolism of uric acid to allantoin, thereby chronically increasing circulating serum uric acid concentration. […] Increased serum uric acid is associated with structural and functional changes in kidney function. Increased creatinine is associated with decreased filtering capacity of kidneys. disease.

[2] = test system: mouse model of polycystic kidney disease (Pkd1RC/RC); assay: uricase inhibition by oxonic acid in mouse model of polycystic kidney disease (FIG. 6B); assay type: in vivo
Description: as §1

[3] = test system: rodent model of polycystic kidney disease; assay: uricase inhibition by oxonic acid, kidney function in rodent model of polycystic kidney disease (FIG. 7); assay type: in vivo
[4] = test system: rodent model of polycystic kidney disease—mouse RC/RC; assay: oxonic acid exposure with or without OXY+L in mouse RC/RC, kidney size (FIG. 9); assay type: in vivo; details: oxonic acid (OXO) exposure alone
From the text: FIG. 9: is a graph showing that in a rodent model of polycystic kidney disease—mouse RC/RC-oxonic acid (OXO) exposure increased kidney size.

[5] = oxypurinol solubility with and without metformin; assay type: physicochemical
From the text: The term “organic base” as used herein refers to the organic base may be (a) a Class 1 base with a pKa1 between about 7 to 13 including but not limited to L-arginine, D-arginine, choline, L-lysine, D-lysine, and caffeine. In an alternative embodiment, the organic base is a biguanide (U.S. Pat. No. 9,480,663) or biguanidine such as metformin, phenformin, buformin or a salts thereof. It is noted that metformin has multiple beneficial effects in the context of compositions and methods described herein. First, it can act as a solubilizing agent for oxypurinol to increase oral bioavailablity. Secondarily, it can act as an alkalinizing agent. Thirdly, metformin here can act as a uric acid solubilizing agent. […] The gliflozin family of SGLT2 inhibitors are also basic and can serve as an organic base in accord with the teachings herein.

[6] = 8 weeks of treatment with oxonic acid, compared to untreated animals
[7] = PCK rat, after 70 days exposure to oxonic acid, P<0.05
[8] = Pkd1RC/RC mouse, after 70 days exposure to oxonic acid, P<0.05

| Compound | total kidney volume [1, 6] | serum uric acid ([1]; PCK rat, after 70 days exposure to oxonic acid) | cyst size [1, 7] | total kidney to body weight ratio (2K/BWT) [1, 7] | serum creatinine ([1]; PCK rat, after 70 days exposure to oxonic acid, P<0.07) | total kidney volume [2, 6] | serum uric acid ([2]; Pkd1RC/RC mouse, after 70 days exposure to oxonic acid) | cyst size [2, 8] | serum creatinine [2, 8] | total kidney to body weight ratio (2K/BWT) [2, 8] | creatinine in serum (kidney function) [3] | kidney size [4] | solubility ([5]; 1:01 to 1:10 ratio of oxypurinol to metformin) [µg/mL] | solubility ([5]; without metformin (starting value)) [µg/mL] |
| --- | --- | --- | --- | --- | --- | --- | --- | --- | --- | --- | --- | --- | --- | --- |
| O=C(O)c1nc(=O)[nH]c(=O)[nH]1 [oxonic acid] | increased significantly | increased | increased | increase | increased | increased significantly | increased | increased | increased | increase | increased | increased |  |  |
| O=c1[nH]c(=O)c2c[nH]nc2[nH]1 [oxypurinol] |  |  |  |  |  |  |  |  |  |  |  |  | ≥ 16800 | 200 (≈ 1310 µM) |
